# How the values were obtained:
# [1] = system: Ang II-infused WT mice; assay: Angiotensin II infusion prevention model: systolic blood pressure (tail-cuff); type: in vivo, mouse; settings: adult WT mice, Ang II 800 ng/kg/min s.c. + HFI-419 500 ng/kg/min, 4 weeks; FIG. 1
# Protocol: There are 8 different sets of in vivo experiments in this study: • A) Phenotypic characterisation of the heart and blood vessels in global IRAP knockout mice and their WT controls treated for 4 weeks with Angiotensin (Ang) II (800 ng/kg/min; s.c.) where mouse hearts and blood vessels were compared to tissue obtained from young WT and IRAP^−/− mice treated with saline. • B) Prevention of Ang II-induced changes in the cardiovascular system following IRAP inhibitor treatment. […]
# All mice which underwent surgery were anaesthetized with Isoflurane (Isorrane) (5% induction and 2.5% maintenance) and an incision made in the midscapular region through which osmotic minipumps (Alzet model 2004, Alza Corp) were inserted for subcutaneous drug administration. […] Systolic blood pressure (SBP) was measured fortnightly using non-invasive tail-cuff plethysmography apparatus (MC4000 Blood Pressure Analysis System, Hatteras Instrument Inc) before drug treatment (week 0), at week 2 of treatment and end of treatment (week 4). At the end of drug treatment, body weight of mice was recorded. […]
# [2] = system: thoracic aortic sections from Ang II-infused WT mice; assay: Angiotensin II infusion prevention model: aortic fibrosis and inflammation markers (picrosirius red, immunofluorescence); type: in vivo, mouse
# Protocol: There are 8 different sets of in vivo experiments in this study: • A) Phenotypic characterisation of the heart and blood vessels in global IRAP knockout mice and their WT controls treated for 4 weeks with Angiotensin (Ang) II (800 ng/kg/min; s.c.) where mouse hearts and blood vessels were compared to tissue obtained from young WT and IRAP^−/− mice treated with saline. • B) Prevention of Ang II-induced changes in the cardiovascular system following IRAP inhibitor treatment. In the prevention model, WT mice were treated with Ang II (800 ng/kg/min; s.c.)±the IRAP inhibitor (HFI-419; 500 ng/kg/min for 28 days) or HFI-vehicle (1 DMSO:3 HBC). • C) Phenotypic characterisation of the aged heart, kidney and blood vessels in the global IRAP knockout mice where aged WT and IRAP^−/− mouse hearts, kidneys and blood vessels were compared to tissue obtained from young WT and IRAP^−/− mice. • D) Reversal of the age-induced changes in the cardiovascular system following IRAP inhibitor treatment. In the reversal model, aged WT mice were treated with either saline, IRAP inhibitor (HFI-419 at 500 ng/kg/min; compound 1 at 500 ng/kg/min; compound 2 at 50 ng/kg/min) or HFI-vehicle (1 DMSO: 3 HBC) for 4 weeks. • E) Prevention of ischemic-reperfusion injury in isolated hearts taken from aged global IRAP knockout mice and aged IRAP inhibitor (HFI-419 at 500 ng/kg/min; s.c.) treated WT mice compared to age-matched vehicle-treated (1 DMSO:3 HBC; s.c.) WT controls. • F) Phenotypic characterization of cardiac function using echocardiography in the aged global IRAP knockout mice compared to aged and young WT mice. • G) Phenotypic characterization of liver steatosis in IRAP knockout mice in a high fat diet (HFD) model. • H) Reversal of the salt-induced fibrosis in the liver following IRAP inhibitor treatment.
# To measure collagen deposition, frozen sections of heart, kidney or aorta (all 5 μm thickness) were air dried for 10 minutes and were brought through 3 times xylene (2 minutes each), and 3 times absolute alcohol washes before being rinsed in tap H2O for 30 seconds. Staining with an optimal concentration of picrosirius red (in this instance 0.05% picrosirius red diluted in saturated picric acid) was performed and left for an hour. Sections were then rinsed in water and differentiated in 0.01 M HCl for 2 minutes, followed by dehydration via 3 times absolute alcohol washes. Then, slides were brought through 3 times xylene washes before being cover slipped according to standard histological techniques using DPX as the mounting medium. Images were taken under ×20 magnification, using bright field (Olympus, BX51) and circularized polarized light microscopy (DM IRB, Leica) while percentage of positive interstitial collagen staining per total field of view was quantified using ImageJ 1.46 software (Java, NIH), and averaged out from a total of eight views as the final percentage collagen content in a particular animal.
# Immunostaining was performed on either 5 μm thick transverse frozen heart sections or 5 μm thick frozen thoracic aortic. These sections were air dried and fixed in ice-cold acetone for approximately 15 minutes before washing with 0.01M PBS buffer (3×10 minutes). Sections were then incubated with 10% goat serum in 0.01M PBS for 30 minutes to reduce non-specific binding. If the primary antibody is raised in goat, this pre-blocked medium is substituted with 5% BSA in PBS and Triton-X. Next, blocking buffers were removed and the primary antibody to respective markers were applied overnight at room temperature based on the following dilution and origin of the antibodies: IRAP (1:500, in-house), α-SMA (1:500, Abcam), Vimentin (1:500, Santa Cruz), P-IκBα (1:200, Cell Signalling), F4/80 macrophage (1:100, Serotec), MCP-1 (1:100, Santa Cruz), VWF (1:500, abcam). […]
# [3] = Ang II + HFI-419, 4 weeks, FIG. 4
# [4] = Ang II + HFI-419, 4 weeks, immunofluorescence, FIG. 3
smiles,measurement,setting,value
CCOC(=O)C1=C(NC(C)=O)Oc2cc(O)ccc2C1c1cccnc1 (centres unmarked) [HFI-419],Ang II-induced increase in systolic blood pressure,[1],attenuates
same,"Ang II-induced vascular fibrosis (aortic collagen, picrosirius red)","[2]; Ang II 800 ng/kg/min + HFI-419 500 ng/kg/min, 4 weeks, FIG. 3",prevented
same,ICAM-1 expression in aorta,[2]; [3],reductions
same,MCP-1 expression in aorta,[2]; [3],reductions
same,P-IκBα (marker for NFκB activation) expression in aorta,[2]; [3],reductions
same,VCAM-1 expression in aorta,[2]; [3],reductions
same,TGF-β1 expression in aorta,[2]; [4],decreased
same,α-SMA expression in aorta,[2]; [4],decreased
